Experimental data as given in EP4628084A1, “NAPHTHALENE-DERIVATIVE-BASED THERAPEUTIC DRUG FOR OPHTHA[…]” (Kyoto University, priority 2022, dated 2024).

Assays:
Format in all cases: physicochemical
[1] = Solubility of KUS121 in water; conditions: at 25°C
[2] = Preliminary experiment: soluble concentration of KUS121 in normal PBS buffer
Protocol: The maximum dose of KUS121 to the vitreous body of the eye is 50 µg/eye, and the liquid volume that can be administered into the vitreous body is preferably about 100 µL or less. […] In view of these premises and the above-mentioned problems, the present inventors have extensively studied to design an injection formulation of KUS121 in a normal PBS buffer that can be administered into the vitreous body, wherein about 50 µg of KUS121 is dissolved in a normal PBS buffer (about 100 µL), i.e., a formulation that allows a concentration setting of 0.5 mg/mL and matches the osmotic pressure in the vitreous body. As a result, the present inventors have conducted the following trials and then have found the following things: i.e., the present inventors first prepared 1 mL of 0.1 mg/mL KUS121 aqueous solution by dissolving KUS121 in water for injection and then adding a PBS buffer solution with about twice the concentration of normal to the KUS121 solution, in which the PBS concentration is 1/5 of the normal concentration. Then, the prepared KUS121 aqueous solution was lyophilized, and 200 µL (0.2 mL) of water for injection [200 µL (0.2 mL) corresponds to 1/5 the volume before the lyophilization] was added to the lyophilized product. […]

[3] = Solubility of KUS121 in PBS buffer at different temperatures (filtrate quantified by HPLC); conditions: for solubility of KUS121: detection limit about 1 µg/mL, quantification limit 5 µg/mL; for solubility: PBS buffer solution, aqueous buffer, thermodynamic from solid
Protocol: A PBS buffer solution comprising 1.6 mg of sodium chloride, 0.229 mg of disodium hydrogen phosphate, 0.04 mg of potassium dihydrogen phosphate, and 0.04 mg of potassium chloride per mL of the solution was prepared, and the temperature of the PBS buffer solution was adjusted to 5°C, 25°C, 40°C, 50°C, and 60°C. KUS121 was added little by little to each solution at the different temperatures and stirred. After stirring for a sufficient time period from the time when some undissolved material appeared, the solution was filtered. As a result of quantifying the filtrate using HPLC, the solubility of KUS121 at each temperature was as follows (detection limit: about 1 µg/mL, quantification limit: 5 µg/mL) .

Cc1cc(F)ccc1-c1ccc(N=Nc2cc(S(=O)(=O)[O-])c3ccccc3c2N)cn1.O.O.[Na+] [KUS121, Sodium 4-amino-3-[6-(4-fluoro-2-methylphenyl)pyridin-3-ylazo]naphthalene-1-sulfonate dihydrate]
solubility [1]: ~2800 µg/mL
solubility of KUS121 in PBS buffer ([2]; PBS buffer, result in words): extremely low
solubility ([2]; normal PBS buffer solution, aqueous buffer, normal PBS buffer, room temperature, preliminary experiment): ≤ 10 µg/mL
solubility of KUS121 ([3]; 5°C): below detection limit
solubility of KUS121 ([3]; 25°C): below detection limit
solubility ([3]; 40°C): 7 µg/mL
solubility ([3]; 50°C): 47 µg/mL
solubility ([3]; 60°C): 132 µg/mL
